In patent EP1432683B9 (Recordati Ireland Limited, priority 2001, dated 2003):
Several values for one entry are separate records, joined by “and”; a condition that tells them apart may be missing. Identical values can stand only once. Counter-ions that a name gives are not always drawn. Like-named read-outs stand apart in the source and are kept apart here. Marks after values point to notes of the source that are not given here.

Legend:
[1] = Relative bioavailability of Form (I) and Form (II) in man; format: in vivo
Protocol: Blood samples were taken at 15 points from time 0 to 24 h post-dosing and plasma concentrations of lercanidipine were determined with a stereoselective analytical method HPLC-MS/MS.

[2] = Solubility in water and in ethanol at room temperature (UV-Visible spectroscopy); format: physicochemical
Text: The molar absorptivity had been previously determined in acetonitrile. The same molar absorptivity was considered for the determination in water and in ethanol. Solubility in water certainly depends on pH. The residual solid obtained by filtration of the suspension was immediately analyzed with Raman spectroscopy.

[3] = Hygroscopicity by DVS analysis; format: physicochemical; conditions: 25°C, whole RH range tested
Protocol: The hygroscopicity of both crystalline Forms (I) and (II) was measured with DVS analysis by means of a water absorption analyzer (SURFACE MEASUREMENT SYSTEM, Marion, Buckinghamshire, UK) according to the following working conditions: […]

[4] = Solubility in mixtures of water-ethanol at 25°C and 40°C; format: physicochemical; conditions: at both 25°C and 40°C
[5] = Bioavailability of crystalline Forms (I) and (II) in dogs; format: in vivo, Beagle dogs
Protocol: A study was carried out on six Beagle dogs to evaluate the bioavailability of crystalline Forms (I) and (II).
Blood samples were taken at given times and plasma concentrations of lercanidipine were determined with a stereoselective analytical method HPLC-MS/MS, according to the following working conditions;
Lercanidipine was extracted from dog plasma by means of a liquid-liquid extraction with a mixture of n-hexane and ethyl ether. The dry residue of the organic phase was taken up with a mixture of methanol and water and a liquid-phase chromatographic separation (LC) was carried out; the two enantiomers of lercanidipine were separated on a CHIROBIOTIC V column (Vancomycin) (particle size […], column size 150 x 4.6 mm (ASTEC, NJ, USA)) and were detected with a mass spectrometer (MS/MS) by using an electrospray technique.
The analytical method was validated in a concentration range between 0.1 and 20 ng/ml of plasma for both enantiomers. The method has shown to be specific with an accuracy of 15%. The average concentrations of lercanidipine in the tables represent the sum of both enantiomers.

[6] = Dog 1, oral 3 mg/kg, hydrochloride, 3 mg/kg
[7] = Dog 2 (not included in mean), oral 3 mg/kg, hydrochloride, 3 mg/kg
[8] = Dog 3, oral 3 mg/kg, hydrochloride, 3 mg/kg
[9] = Dog 4, oral 3 mg/kg, hydrochloride, 3 mg/kg
[10] = Dog 5, oral 3 mg/kg, hydrochloride, 3 mg/kg
[11] = Mean (n=5, Dog 2 not included), oral 3 mg/kg, hydrochloride, 3 mg/kg

COC(=O)C1=C(C)NC(C)=C(C(=O)OC(C)(C)CN(C)CCC(c2ccccc2)c2ccccc2)C1c1cccc([N+](=O)[O-])c1 (single isomer, unassigned) [Form (II), lercanidipine hydrochloride]
bioequivalence to Form I ([1]; 10 mg tablet): not bioequivalent to Form I | AUC0-t ([1]; 10 mg tablet, single dose, geom. least square mean, 1440 min, hydrochloride): 10.36 ng·h/mL | Cmax ([1]; 10 mg tablet, single dose, geom. least square mean, hydrochloride): 3.22 ng/mL | Tmax ([1]; 10 mg tablet, single dose, median, hydrochloride): 2.50* h | tmax Point Estimate (T/R), median difference ([1]; Test = Form (II) tablet, Reference = Form (I) tablet (Zanedip)): 0.75** h | Solubility compared with Form (I) [2]: less soluble than Form (I) in both solvents | mass variation [3]: < 0.05% | water concentration at which the maximum solubility is reached [4]: 20% | AUC0-t [5, 6]: 54.59 ng/h/mL | Cmax [5, 6]: 18.46 ng/mL | Tmax [5, 6]: 3.00 h | AUC0-t [5, 7]: 119.77 ng/h/mL | Cmax [5, 7]: 52.19 ng/mL | Tmax [5, 7]: 1.50 h | AUC0-t [5, 8]: 75.62 ng/h/mL | Tmax [5, 8]: 1.50 h | AUC0-t [5, 9]: 173.82 ng/h/mL | Tmax [5, 9]: 4.00 h | AUC0-t [5, 10]: 142.34 ng/h/mL | Cmax [5, 10]: 55.38 ng/mL | Tmax [5, 10]: 2.00 h | Tmax ([5]; Dog 6, oral 3 mg/kg): 6.00 h | AUC0-t ([5]; Dog 6, oral 3 mg/kg, hydrochloride, 3 mg/kg): 61.91 ng/h/mL | AUC0-t [5, 11]: 104.68 ng/h/mL | Cmax [5, 11]: 36.17 ng/mL | Tmax [5, 11]: 3.00 h | concentration in plasma of lercanidipine (S+R) ([5]; Time 0 h, Dog 1, oral 3 mg/kg): 0.00 ng/mL | concentration in plasma of lercanidipine (S+R) ([5]; Time 0 h, Dog 2 (not included in mean), oral 3 mg/kg): 0.00 ng/mL | concentration in plasma of lercanidipine (S+R) ([5]; Time 0 h, Dog 3, oral 3 mg/kg): 0.00 ng/mL | concentration in plasma of lercanidipine (S+R) ([5]; Time 0 h, Dog 4, oral 3 mg/kg): 0.00 ng/mL | concentration in plasma of lercanidipine (S+R) ([5]; Time 0 h, Dog 5, oral 3 mg/kg): 0.00 ng/mL | concentration in plasma of lercanidipine (S+R) ([5]; Time 0 h, Dog 6, oral 3 mg/kg): 0.00 ng/mL | concentration in plasma of lercanidipine (S+R) ([5]; Time 0 h, Mean (Dog 2 not included), oral 3 mg/kg): 0.00 ng/mL | concentration in plasma of lercanidipine (S+R) ([5]; Time 0.5 h, Dog 1, oral 3 mg/kg, hydrochloride, 3 mg/kg): 0.00 ng/mL | concentration in plasma of lercanidipine (S+R) ([5]; Time 0.5 h, Dog 2 (not included in mean), oral 3 mg/kg, hydrochloride, 3 mg/kg, 30 min): 22.67 ng/mL | concentration in plasma of lercanidipine (S+R) ([5]; Time 0.5 h, Dog 4, oral 3 mg/kg): 0.00 ng/mL | concentration in plasma of lercanidipine (S+R) ([5]; Time 0.5 h, Dog 5, oral 3 mg/kg): 0.00 ng/mL | concentration in plasma of lercanidipine (S+R) ([5]; Time 0.5 h, Dog 6, oral 3 mg/kg): 0.00 ng/mL | concentration in plasma of lercanidipine (S+R) ([5]; Time 1 h, Dog 1, oral 3 mg/kg, hydrochloride, 3 mg/kg): 0.00 ng/mL | concentration in plasma of lercanidipine (S+R) ([5]; Time 1 h, Dog 2 (not included in mean), oral 3 mg/kg, hydrochloride, 3 mg/kg, 60 min): 52.13 ng/mL | concentration in plasma of lercanidipine (S+R) ([5]; Time 1 h, Dog 6, oral 3 mg/kg): 0.00 ng/mL | concentration in plasma of lercanidipine (S+R) ([5]; Time 1 h, Mean (Dog 2 not included), oral 3 mg/kg, hydrochloride, 3 mg/kg, 60 min): 5.08 ng/mL | concentration in plasma of lercanidipine (S+R) ([5]; Time 1.5 h, Dog 1, oral 3 mg/kg, hydrochloride, 3 mg/kg, 90 min): 0.23 ng/mL | concentration in plasma of lercanidipine (S+R) ([5]; Time 1.5 h, Dog 2 (not included in mean), oral 3 mg/kg, hydrochloride, 3 mg/kg, 90 min): 52.19 ng/mL | concentration in plasma of lercanidipine (S+R) ([5]; Time 1.5 h, Dog 3, oral 3 mg/kg, hydrochloride, 3 mg/kg, 90 min): 19.78 ng/mL | concentration in plasma of lercanidipine (S+R) ([5]; Time 1.5 h, Dog 5, oral 3 mg/kg, hydrochloride, 3 mg/kg, 90 min): 32.69 ng/mL | concentration in plasma of lercanidipine (S+R) ([5]; Time 1.5 h, Mean (Dog 2 not included), oral 3 mg/kg, hydrochloride, 3 mg/kg, 90 min): 18.32 ng/mL | concentration in plasma of lercanidipine (S+R) ([5]; Time 2 h, Dog 2 (not included in mean), oral 3 mg/kg, hydrochloride, 3 mg/kg, 120 min): 35.45 ng/mL | concentration in plasma of lercanidipine (S+R) ([5]; Time 2 h, Dog 3, oral 3 mg/kg, hydrochloride, 3 mg/kg, 120 min): 17.81 ng/mL | concentration in plasma of lercanidipine (S+R) ([5]; Time 2 h, Dog 4, oral 3 mg/kg, hydrochloride, 3 mg/kg, 120 min): 38.10 ng/mL | concentration in plasma of lercanidipine (S+R) ([5]; Time 2 h, Dog 5, oral 3 mg/kg, hydrochloride, 3 mg/kg, 120 min): 55.38 ng/mL | concentration in plasma of lercanidipine (S+R) ([5]; Time 2 h, Dog 6, oral 3 mg/kg, hydrochloride, 3 mg/kg, 120 min): 10.19 ng/mL | concentration in plasma of lercanidipine (S+R) ([5]; Time 2 h, Mean (Dog 2 not included), oral 3 mg/kg, hydrochloride, 3 mg/kg, 120 min): 25.82 ng/mL | concentration in plasma of lercanidipine (S+R) ([5]; Time 3 h, Dog 1, oral 3 mg/kg, hydrochloride, 3 mg/kg, 180 min): 18.46 ng/mL | concentration in plasma of lercanidipine (S+R) ([5]; Time 3 h, Dog 2 (not included in mean), oral 3 mg/kg, hydrochloride, 3 mg/kg, 180 min): 17.43 ng/mL | concentration in plasma of lercanidipine (S+R) ([5]; Time 3 h, Dog 3, oral 3 mg/kg, hydrochloride, 3 mg/kg, 180 min): 15.80 ng/mL | concentration in plasma of lercanidipine (S+R) ([5]; Time 3 h, Mean (Dog 2 not included), oral 3 mg/kg, hydrochloride, 3 mg/kg, 180 min): 23.46 ng/mL | concentration in plasma of lercanidipine (S+R) ([5]; Time 4 h, Dog 1, oral 3 mg/kg, hydrochloride, 3 mg/kg, 240 min): 14.83 ng/mL | concentration in plasma of lercanidipine (S+R) ([5]; Time 4 h, Dog 2 (not included in mean), oral 3 mg/kg, hydrochloride, 3 mg/kg, 240 min): 5.17 ng/mL | concentration in plasma of lercanidipine (S+R) ([5]; Time 4 h, Dog 4, oral 3 mg/kg, hydrochloride, 3 mg/kg, 240 min): 52.64 ng/mL | concentration in plasma of lercanidipine (S+R) ([5]; Time 4 h, Dog 6, oral 3 mg/kg, hydrochloride, 3 mg/kg, 240 min): 13.24 ng/mL | concentration in plasma of lercanidipine (S+R) ([5]; Time 4 h, Mean (Dog 2 not included), oral 3 mg/kg, hydrochloride, 3 mg/kg, 240 min): 23.69 ng/mL | concentration in plasma of lercanidipine (S+R) ([5]; Time 6 h (last sampling time), Mean (Dog 2 not included), oral 3 mg/kg, hydrochloride, 3 mg/kg, 360 min): 10.9 ± 6.8 ng/mL and 10.89 ng/mL | concentration in plasma of lercanidipine (S+R) ([5]; Time 6 h, Dog 1, oral 3 mg/kg, hydrochloride, 3 mg/kg, 360 min): 8.05 ng/mL | concentration in plasma of lercanidipine (S+R) ([5]; Time 6 h, Dog 2 (not included in mean), oral 3 mg/kg, hydrochloride, 3 mg/kg, 360 min): 4.50 ng/mL | concentration in plasma of lercanidipine (S+R) ([5]; Time 6 h, Dog 3, oral 3 mg/kg, hydrochloride, 3 mg/kg, 360 min): 3.62 ng/mL | concentration in plasma of lercanidipine (S+R) ([5]; Time 6 h, Dog 4, oral 3 mg/kg, hydrochloride, 3 mg/kg, 360 min): 17.46 ng/mL | concentration in plasma of lercanidipine (S+R) ([5]; Time 6 h, Dog 5, oral 3 mg/kg, hydrochloride, 3 mg/kg, 360 min): 6.76 ng/mL | concentration in plasma of lercanidipine (S+R) ([5]; Time 6 h, Dog 6, oral 3 mg/kg, hydrochloride, 3 mg/kg, 360 min): 18.56 ng/mL | Cmax ([5]; dog, plasma, po, 3 mg/kg, Dog 3, read-out: Cmax): 19.8 ng/mL | Cmax ([5]; dog, plasma, po, 3 mg/kg, Dog 4, read-out: Cmax): 52.6 ng/mL | Cmax ([5]; dog, plasma, po, 3 mg/kg, Dog 6, read-out: Cmax): 18.6 ng/mL | concentration at 0.5 h ([5]; dog, plasma, po, 3 mg/kg, Time 0.5 h, Dog 3, read-out: concentration in plasma of lercanidipine (S+R)): 6.99 ng/mL | concentration at 0.5 h ([5]; dog, plasma, po, 3 mg/kg, Time 0.5 h, Mean (Dog 2 not included), read-out: concentration in plasma of lercanidipine (S+R)): 1.4 ng/mL | concentration at 1 h ([5]; dog, plasma, po, 3 mg/kg, Time 1 h, Dog 3, read-out: concentration in plasma of lercanidipine (S+R)): 16.6 ng/mL | concentration at 1 h ([5]; dog, plasma, po, 3 mg/kg, Time 1 h, Dog 4, read-out: concentration in plasma of lercanidipine (S+R)): 5.5 ng/mL | concentration at 1 h ([5]; dog, plasma, po, 3 mg/kg, Time 1 h, Dog 5, read-out: concentration in plasma of lercanidipine (S+R)): 3.28 ng/mL | concentration at 1.5 h ([5]; dog, plasma, po, 3 mg/kg, Time 1.5 h, Dog 4, read-out: concentration in plasma of lercanidipine (S+R)): 35.4 ng/mL | concentration at 1.5 h ([5]; dog, plasma, po, 3 mg/kg, Time 1.5 h, Dog 6, read-out: concentration in plasma of lercanidipine (S+R)): 3.49 ng/mL | concentration at 2 h ([5]; dog, plasma, po, 3 mg/kg, Time 2 h, Dog 1, read-out: concentration in plasma of lercanidipine (S+R)): 7.63 ng/mL | concentration at 3 h ([5]; dog, plasma, po, 3 mg/kg, Time 3 h, Dog 4, read-out: concentration in plasma of lercanidipine (S+R)): 28.4 ng/mL | concentration at 3 h ([5]; dog, plasma, po, 3 mg/kg, Time 3 h, Dog 5, read-out: concentration in plasma of lercanidipine (S+R)): 40.6 ng/mL | concentration at 4 h ([5]; dog, plasma, po, 3 mg/kg, Time 4 h, Dog 3, read-out: concentration in plasma of lercanidipine (S+R)): 14.1 ng/mL | concentration at 4 h ([5]; dog, plasma, po, 3 mg/kg, Time 4 h, Dog 5, read-out: concentration in plasma of lercanidipine (S+R)): 23.7 ng/mL
